Measured values from US11952365B2, “Anti-viral compounds” (Aligos Therapeutics, Inc., priority 2020, dated 2024).
pEC50, pIC50: −log10 of the molar value. Where two headings read alike, the source gives them in different places.

What was measured:
3CLpro = 3CLpro (Severe acute respiratory syndrome coronavirus 2, UniProt P0DTD1); experiment: SARS-CoV-2 3CLpro protease assay (duplex, SAMDI-MS); format: biochemical; parameters: For the duplex assay, 3CLpro and HRV3C was added; conditions: 30 mins preincubation, class symbols
[1] = tested on: human beta-coronavirus OC43; experiment: microbe, parasite or virus in culture; format: cell-based; conditions: Betacoronavirus 1, OC43, HeLa, 144 h
human cathepsin L = target: T1, human cathepsin L (Homo sapiens, UniProt P07711); experiment: cathepsin L assay; format: biochemical; conditions: 10 pM human cathepsin L, Z-FR-AMC 2 μM, class symbols
T1 construct: purchased R&D Systems
How it was run: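 Reactions began by adding 2 μM (final) Z-FR-AMC substrate to 10 pM human cathepsin L that had been preincubated 30 min with inhibitor. Kinetic AMC fluorescence at 355/460 nm over 30 min at 2-min intervals; four-parameter fitting gave IC50 values.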

HRV3C = HRV3C (Human rhinovirus 14, UniProt P03303); experiment: HRV3C protease assay (duplex, SAMDI-MS); format: biochemical, HRV; conditions: 30 mins preincubation
How it was run: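 Compounds are preincubated 30 min with the protease pair before substrate addition, and cleavage proceeds 30 min at room temperature. Product peptides are measured by SAMDI-MS relative to internal standards, with IC50 obtained from a four-parameter fit.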

in vitro [2] = conditions: human
[3] = tested on: SARS-CoV-2-GHB-03021/2020; experiment: microbe, parasite or virus in culture; format: cell-based; conditions: Severe acute respiratory syndrome coronavirus 2, Vero C1008, 96 h; read-out: VeroE6 + CP (EC50)
[4] = Cytotoxicity plates without OC43 virus (cell-titer-glo); format: cell-based, human; conditions: human; HeLa cells without OC43 virus, class symbols
How it was run: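 Run as a virus-free counterpart of the OC43 cytopathic-effect assay. Attached HeLa cells received compound dilutions in EMEM with 2% FBS and were kept 6 days at 33 °C. Cell viability was then measured by CellTiter-Glo luminescence.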

[5] = tested on: SARS-CoV-2-GHB-03021/2020; experiment: SARS-CoV-2 Infection Model in Huh7 Cells; format: cell-based; conditions: Severe acute respiratory syndrome coronavirus 2, Huh-7, 96 h, SARS-CoV-2, day 4 p.i., MTS
in vitro [6] = conditions: African green monkey, VeroE6 + CP (CC50), Vero E6-eGFP cells with CP-100356, absence of virus, MTS
[7] = 3CLpro, read-out: SARS-Cov-2 IC50
[8] = OC43 in HeLa cells, 6 days at 33° C., class symbols, read-out: EC50
[9] = HRV3C, bound, read-out: HRV IC50
[10] = HRV3C, class symbols, read-out: HRV IC50

SMILES | pIC50 (3CLpro; [7]) | pEC50 [1, 8] | pIC50 (human cathepsin L) | pIC50 (HRV3C; HRV IC50, HRV3C, bound) | CC50 (in vitro [2]) | pEC50 [3] | CC50 at 6 days [4] | pEC50 ([5]; class symbols) | CC50 (in vitro [6]; numeric bounds) | pEC50 [1] | pIC50 (HRV3C; HRV IC50, HRV3C, class symbols) | pIC50 (HRV3C; [9]) | pIC50 (HRV3C; [10]) | CC50 (in vitro [6]; class symbols) | pIC50 (3CLpro; SARS-Cov-2 IC50, 3CLpro) | pEC50 ([1]; OC43 in HeLa cells, 6 days at 33° C., bound, read-out: EC50) | pEC50 ([5]; numeric bounds)
COc1cccc2[nH]c(C(=O)N3C[C@H]4[C@@H]([C@H]3C(=O)N[C@@H](C[C@@H]3CCNC3=O)C(=O)CO)C4(C)C)cc12 [Compound 43] | 6.70 to 7.70 | 6.00 to 7.00 | ≤ 5.00 | < 5.00 | > 100 µM | 5.00 to 6.00 | > 10 µM | 5.00 to 6.00 | > 100 µM | – | – | – | – | – | – | – | –
O=C1NCC[C@H]1C[C@H](NC(=O)[C@@H]1[C@H]2CCC[C@H]2CN1C(=O)c1cc(-c2ccccc2)c[nH]1)C(=O)CO [Compound 79, (1S,3aR,6aS)—N—((S)-4-hydroxy-3-oxo-1-((S)-2-oxopyrrolidin-3-yl)butan-2-yl)-2-(4-phenyl-1H-pyrrole-2-carbonyl)octahydrocyclopenta[c]pyrrole-1-carboxamide] | 6.70 to 7.70 | – | ≤ 5.00 | – | > 50 µM | 5.00 to 6.00 | > 10 µM | 5.00 to 6.00 | > 50 µM | 6.00 to 7.00 | 4.70 to 5.70 | – | – | – | – | – | –
O=C1NCC[C@H]1C[C@H](NC(=O)[C@@H]1[C@H]2CCC[C@H]2CN1C(=O)c1cc2c(Cl)ccc(Cl)c2[nH]1)C(=O)CO [Compound 156, (1S,3aR,6aS)-2-(4,7-dichloro-1H-indole-2-carbonyl)-N-[(2S)-4-hydroxy-3-oxo-1-[(3S)-2-oxopyrrolidin-3-yl]butan-2-yl]-hexahydro-1H-cyclopenta[c]pyrrole-1-carboxamide] | > 7.70 | 6.00 to 7.00 | ≤ 5.00 | – | > 50 µM | > 6.00 | > 10 µM | > 6.00 | > 50 µM | – | – | < 5.00 | – | – | – | – | –
O=C1NCC[C@H]1C[C@H](NC(=O)[C@@H]1[C@H]2CCC[C@H]2CN1C(=O)c1cc2c(OC(F)F)cccc2[nH]1)C(=O)CO [Compound 87, (1S,3aR,6aS)-2-[4-(difluoromethoxy)-1H-indole-2-carbonyl]-N-[(2S)-4-hydroxy-3-oxo-1-[(3S)-2-oxopyrrolidin-3-yl]butan-2-yl]-hexahydro-1H-cyclopenta[c]pyrrole-1-carboxamide] | > 7.70 | > 7.00 | ≤ 5.00 | – | > 10 µM | > 6.00 | > 10 µM | 5.00 to 6.00 | > 100 µM | – | – | – | 4.70 to 5.70 | – | – | – | –
O=C(NCc1ccccc1)C(=O)[C@H](C[C@@H]1CCNC1=O)NC(=O)[C@@H]1CC2(CCN1C(=O)c1cc3ccccc3[nH]1)CC2 [Compound 24] | 6.70 to 7.70 | 6.00 to 7.00 | 6.00 to 7.00 | – | > 10 µM | 5.00 to 6.00 | > 10 µM | 5.00 to 6.00 | > 100 µM | – | – | – | 4.00 to 4.70 | – | – | – | –
O=C1NCC[C@H]1C[C@H](NC(=O)[C@@H]1[C@H]2CCC[C@H]2CN1C(=O)c1cc2c3c(ccc2[nH]1)CCO3)C(=O)CO [Compound 108, (1S,3aR,6aS)-2-{2H,3H,6H-furo[2,3-e]indole-7-carbonyl}-N-[(2S)-4-hydroxy-3-oxo-1-[(3S)-2-oxopyrrolidin-3-yl]butan-2-yl]-hexahydro-1H-cyclopenta[c]pyrrole-1-carboxamide] | 6.70 to 7.70 | 6.00 to 7.00 | ≤ 5.00 | – | > 50 µM | 5.00 to 6.00 | > 10 µM | 4.00 to 5.00 | > 50 µM | – | – | < 5.00 | – | – | – | – | –
O=C(NCc1ccccc1)C(=O)C(C[C@@H]1CCNC1=O)NC(=O)[C@@H]1C[C@@H](C2CC2)CN1C(=O)c1cc2ccccc2[nH]1 (stereo partly drawn) [Compound 40, N-benzyl-3-{[(2S,4S)-4-cyclopropyl-1-(1H-indole-2-carbonyl)pyrrolidin-2-yl]formamido}-2-oxo-4-[(3S)-2-oxopyrrolidin-3-yl]butanamide] | 5.70 to 6.70 | 6.00 to 7.00 | 6.00 to 7.00 | – | > 10 µM | 5.00 to 6.00 | > 10 µM | 5.00 to 6.00 | > 100 µM | – | – | – | 5.70 to 6.70 | – | – | – | –
O=C1NCC[C@H]1C[C@H](NC(=O)[C@@H]1[C@H]2CCC[C@H]2CN1C(=O)c1cc2c(OC3CC3)cc(Cl)cc2[nH]1)C(=O)CO [Compound 138, (1S,3aR,6aS)-2-(6-chloro-4-cyclopropoxy-1H-indole-2-carbonyl)-N-[(2S)-4-hydroxy-3-oxo-1-[(3S)-2-oxopyrrolidin-3-yl]butan-2-yl]-hexahydro-1H-cyclopenta[c]pyrrole-1-carboxamide] | > 7.70 | > 7.00 | ≤ 5.00 | – | > 50 µM | 5.00 to 6.00 | > 10 µM | > 6.00 | > 50 µM | – | – | – | 4.70 to 5.70 | – | – | – | –
COc1cccc2[nH]c(C(=O)N3C[C@]4(C[C@H]3C(=O)NC(C=O)C[C@@H]3CCCNC3=O)CC4(F)F)cc12 (stereo partly drawn) [Compound 29, (3S,6S)-1,1-difluoro-5-(4-methoxy-1H-indole-2-carbonyl)-N-(1-oxo-3-((S)-2-oxopiperidin-3-yl)propan-2-yl)-5-azaspiro[2.4]heptane-6-carboxamide] | 6.70 to 7.70 | 5.00 to 6.00 | 6.00 to 7.00 | – | > 100 µM | 5.00 to 6.00 | > 10 µM | 5.00 to 6.00 | > 100 µM | – | – | – | 6.70 to 7.70 | – | – | – | –
O=C1NCC[C@H]1C[C@H](NC(=O)[C@@H]1[C@H]2CCC[C@H]2CN1C(=O)c1cc2c(Cl)cccc2[nH]1)C(=O)CO [Compound 60, (1S,3aR,6aS)-2-(4-chloro-1H-indole-2-carbonyl)-N-[(2S)-4-hydroxy-3-oxo-1-[(3S)-2-oxopyrrolidin-3-yl]butan-2-yl]-hexahydro-1H-cyclopenta[c]pyrrole-1-carboxamide] | > 7.70 | > 7.00 | ≤ 5.00 | – | > 100 µM | > 6.00 | > 10 µM | > 6.00 | – | – | – | < 5.00 | – | > 10 µM | – | – | –
COCCNC(=O)C(=O)[C@H](C[C@@H]1CCNC1=O)NC(=O)[C@@H]1[C@H]2CCC[C@H]2CN1C(=O)c1cc2c(OC)cccc2[nH]1 [Compound 100, (1S,3aR,6aS)-2-(4-methoxy-1H-indole-2-carbonyl)-N—((S)-4-((2-methoxyethyl)amino)-3,4-dioxo-1-((S)-2-oxopyrrolidin-3-yl)butan-2-yl)octahydrocyclopenta[c]pyrrole-1-carboxamide] | – | 5.00 to 6.00 | ≤ 5.00 | – | > 50 µM | 4.00 to 5.00 | > 10 µM | 4.00 to 5.00 | > 100 µM | – | 5.70 to 6.70 | – | – | – | 6.70 to 7.70 | – | –
COc1cccc2[nH]c(C(=O)N3C[C@@H]4CCC[C@@H]4[C@H]3C(=O)N[C@@H](Cn3cc[nH]c3=O)C(=O)C(=O)NC3CC3)cc12 [Compound 119] | 5.70 to 6.70 | – | ≤ 5.00 | – | > 50 µM | < 4.30 | > 10 µM | – | > 50 µM | – | – | < 5.00 | – | – | – | < 5.00 | < 4.30
O=C1NCC[C@H]1C[C@H](NC(=O)[C@@H]1[C@H]2CCC[C@H]2CN1C(=O)c1cc2c(OC(F)(F)F)cccc2[nH]1)C(=O)CO [Compound 64, (1S,3aR,6aS)—N-[(2S)-4-hydroxy-3-oxo-1-[(3S)-2-oxopyrrolidin-3-yl]butan-2-yl]-2-[4-(trifluoromethoxy)-1H-indole-2-carbonyl]-hexahydro-1H-cyclopenta[c]pyrrole-1-carboxamide] | 6.70 to 7.70 | > 7.00 | ≤ 5.00 | – | > 10 µM | > 6.00 | > 10 µM | > 6.00 | – | – | – | < 5.00 | – | > 10 µM | – | – | –
O=C1NCC[C@H]1C[C@H](NC(=O)[C@@H]1[C@H]2CCC[C@H]2CN1C(=O)c1cc2c(C(F)(F)F)cccc2[nH]1)C(=O)CO [Compound 63, (1S,3aR,6aS)—N-[(2S)-4-hydroxy-3-oxo-1-[(3S)-2-oxopyrrolidin-3-yl]butan-2-yl]-2-[4-(trifluoromethyl)-1H-indole-2-carbonyl]-hexahydro-1H-cyclopenta[c]pyrrole-1-carboxamide] | 6.70 to 7.70 | 6.00 to 7.00 | ≤ 5.00 | – | > 10 µM | > 6.00 | > 10 µM | > 6.00 | – | – | – | < 5.00 | – | > 10 µM | – | – | –
